Laboratory results: the NIST ThermoML archive (doi:10.1016/j.jct.2018.02.022)

Experiment: xn = mol fraction of the nth substance listed
Conditions: 92.3 kPa, Liquid; for viscosity: Concentric cylinders viscometry; for speed of sound: Frequency=3 MHz, Single path-length method; for mass density: Vibrating tube method

OCCOCCO [diethylene glycol] + O
Conditions | mass density, 303.15 K [kg/m3] | mass density, 308.15 K [kg/m3] | speed of sound, 303.15 K [m/s] | speed of sound, 308.15 K [m/s] | viscosity, 303.15 K [mPa·s] | viscosity, 308.15 K [mPa·s]
x1 = 0.0097 | 1003.37 | 1001.63 | 1533.2 | 1542 | – | –
x1 = 0.0201 | 1010.67 | 1008.81 | 1557.2 | 1564 | – | –
x1 = 0.0297 | 1017 | 1015.02 | 1577.4 | 1582.4 | – | –
x1 = 0.0397 | 1023.28 | 1021.17 | 1596.1 | 1599.4 | – | –
x1 = 0.049 | 1028.58 | 1026.33 | – | – | 1.6 | 1.413
x1 = 0.0502 | 1029.24 | 1026.99 | 1614 | 1615.7 | – | –
x1 = 0.0591 | 1033.98 | 1031.63 | 1627.4 | 1627.8 | – | –
x1 = 0.0703 | 1039.6 | 1037.11 | 1642.7 | 1641.6 | – | –
x1 = 0.0796 | 1043.88 | 1041.29 | 1653.2 | 1650.9 | – | –
x1 = 0.0897 | 1048.13 | 1045.45 | 1663.2 | 1659.9 | – | –
x1 = 0.0992 | 1051.97 | 1049.2 | – | – | 2.605 | 2.273
x1 = 0.1004 | 1052.46 | 1049.66 | 1672.7 | 1668.3 | – | –
x1 = 0.149 | 1068.06 | 1064.94 | – | – | 3.83 | 3.297
x1 = 0.1507 | 1068.42 | 1065.27 | 1698.5 | 1690.5 | – | –
x1 = 0.1996 | 1079.15 | 1075.79 | 1705.1 | 1695.2 | – | –
x1 = 0.1998 | 1079.37 | 1076.01 | – | – | 5.27 | 4.501
x1 = 0.2467 | 1086.77 | 1083.27 | 1701.8 | 1690.9 | – | –
x1 = 0.249 | 1086.95 | 1083.44 | – | – | 6.766 | 5.753
x1 = 0.2943 | 1091.84 | 1088.25 | 1694.1 | 1682.5 | – | –
x1 = 0.2987 | 1092.38 | 1088.8 | – | – | 8.326 | 7.056
x1 = 0.3501 | 1096.45 | 1092.82 | – | – | 9.951 | 8.401
x1 = 0.3511 | 1096.61 | 1092.99 | 1681.7 | 1669.7 | – | –
x1 = 0.3995 | 1099.42 | 1095.83 | 1670.2 | 1658 | – | –
x1 = 0.4007 | 1099.43 | 1095.8 | – | – | 11.5 | 9.648
x1 = 0.4504 | 1101.7 | 1098.07 | – | – | 12.97 | 10.79
x1 = 0.4527 | 1101.88 | 1098.24 | 1657.7 | 1645.4 | – | –
x1 = 0.4973 | 1103.4 | 1099.78 | – | – | 14.26 | 11.82
x1 = 0.5008 | 1103.56 | 1099.92 | 1646.6 | 1634.3 | – | –
x1 = 0.5449 | 1104.75 | 1101.11 | 1637.3 | 1625 | – | –
x1 = 0.553 | 1105 | 1101.38 | – | – | 15.69 | 12.94
x1 = 0.5834 | 1105.61 | 1101.98 | 1629.2 | 1617 | – | –
x1 = 0.5938 | 1105.91 | 1102.29 | – | – | 16.62 | 13.67
x1 = 0.6482 | 1106.76 | 1103.13 | 1616.6 | 1604.4 | – | –
x1 = 0.6514 | 1106.89 | 1103.27 | – | – | 17.9 | 14.67
x1 = 0.6864 | 1107.34 | 1103.72 | – | – | 18.56 | 15.18
x1 = 0.6982 | 1107.42 | 1103.8 | 1608.1 | 1596 | – | –
x1 = 0.7444 | 1107.94 | 1104.33 | 1600.4 | 1588.3 | – | –
x1 = 0.7556 | 1108.01 | 1104.38 | – | – | 19.68 | 16.06
x1 = 0.7962 | 1108.41 | 1104.81 | 1592.7 | 1580.7 | – | –
x1 = 0.7999 | 1108.35 | 1104.73 | – | – | 20.32 | 16.57
x1 = 0.8401 | 1108.74 | 1105.14 | 1586.6 | 1574.5 | – | –
x1 = 0.8525 | 1108.74 | 1105.13 | – | – | 20.98 | 17.08
x1 = 0.8947 | 1109.09 | 1105.49 | 1579.5 | 1567.5 | – | –
x1 = 0.9002 | 1109.09 | 1105.5 | – | – | 21.55 | 17.53
x1 = 0.9092 | 1109.17 | 1105.58 | 1577.7 | 1565.7 | – | –
x1 = 0.919 | 1109.23 | 1105.64 | 1576.5 | 1564.5 | – | –
x1 = 0.9303 | 1109.27 | 1105.68 | 1575.3 | 1563.3 | – | –
x1 = 0.9393 | 1109.28 | 1105.69 | 1574.3 | 1562.3 | – | –
x1 = 0.9473 | 1109.36 | 1105.77 | 1573.3 | 1561.4 | – | –
x1 = 0.9554 | 1109.45 | 1105.86 | – | – | 22.07 | 17.95
x1 = 0.9566 | 1109.41 | 1105.82 | 1572.2 | 1560.2 | – | –
x1 = 0.9694 | 1109.47 | 1105.88 | 1570.8 | 1558.9 | – | –
x1 = 0.9801 | 1109.52 | 1105.93 | 1569.6 | 1557.7 | – | –
x1 = 0.9915 | 1109.56 | 1105.97 | 1568.3 | 1556.4 | – | –
x1 = 1 | 1109.6 | 1106.01 | 1567.2 | 1555.3 | 22.48 | 18.27
